Publication PMC9738531, “Cholinesterases Inhibition, Anticancer and Antioxidant Activity of Novel Benzoxazole and Naphthoxazole Analogs” (Molecules, 2022)
Read-outs that look alike come from different tables or passages of the source.

What was measured:
[1] = Lipophilicity by RP-18 HPLC chromatography; type: physicochemical; settings: for -S (slope of log k vs MeOH fraction): MeOH/acetate buffer, pH 7.4; for log kw: pH 7.4, extrapolation to pure water as mobile phase
Text: The lipophilicity parameter was estimated for the tested compounds as it is an important feature that influences the pharmacokinetic properties of bioactive compounds [46, 47]. Lipophilicity also determines some biological activities, such as the antiproliferative or fungistatic activity. For lipophilicity determination, reversed-phase column chromatography was used, with the octadecyl C-18 stationary phase and MeOH as the organic modifier in the isocratic conditions.
HPLC measurements were performed using a liquid chromatograph (Knauer, Berlin, Germany) with a dual pump and a UV-visible detector. The measurements were made at 254 or 320 nm at room temperature. A Eurosil Bioselect C18 (5 μm, 300 × 4.6 mm) column was applied as the stationary phase. The mobile phase consisted of different volume mixtures of 20 mM acetate buffer as the aqueous phase, and MeOH as the organic modifier (pH 7.4). The different concentrations of MeOH from 0.5 to 0.90 (v/v) range was used, depending on the structure of the compound at 0.05 intervals. The flow rate was 1 mL/min. Retention time of an unretained solute (t0) was determined by the injection of a small amount of acetone dissolved in water.
Regular changes in the retention coefficients of compounds in a function of the organic modifier MeOH content in the mobile phase are described by the Soczewiński–Wachtmeister equation [56]:log k = log kw + S φ(1)
φ—the volume fraction of organic modifier (MeOH) in the mobile phase; log kw—the intercept; S—slope of the regression curve. Log kw refers to the retention parameter of a compound with pure water as the mobile phase.

[2] = tested on: HCV29T (bladder cancer) cells; assay: SRB antiproliferative assay, HCV29T; type: cell-based, human; settings: 72 h, means ± SD, read-out: IC50 HCV 29T
Experimental: (§1) The compounds were also evaluated for their antiproliferative potencies against human cancer cell lines as the potential anticancer agents. […]. The results are presented in Table 3 and expressed as IC50 (μM). In that score, the highest potency was shown by the analogs from the naphtho[1,2-d][1,3]oxazole group 8–10, particularly by derivative 10 with a chlorine atom on the benzenediol moiety.
(§2) In the antiproliferative assay in vitro, the following human cell lines were applied: T47D (breast cancer), SW707 (rectal adenocarcinoma), A549 (non-small cell lung carcinoma) from the American Type Culture Collection (Rockville, MD, USA) and HCV29T (bladder cancer) from the Fibiger Institute, Copenhagen, Denmark. Cytotoxicity assay was performed after 72 h exposure of the cultured cells at the concentration ranging from 0.1 to 100 μg/mL of the tested agents. The SRB test measuring the cell proliferation inhibition in the in vitro culture was applied. The cellular material fixed with TCA was stained with 0.4% sulforhodamine B (Chemie GmbH, Steinheim, Germany) dissolved in 1% acetic acid (POCh, Gliwice, Poland) for 30 min.

[3] = tested on: SW707 (rectal adenocarcinoma) cells; assay: SRB antiproliferative assay, SW707; type: cell-based, human; settings: means ± SD, read-out: IC50 SW 707
Experimental: as §1, §2

[4] = tested on: T47D (breast cancer) cells; assay: SRB antiproliferative assay, T47D; type: cell-based, human; settings: 72 h, means ± SD
Experimental: as §1, §2

[5] = tested on: A549 (non-small cell lung carcinoma) cells; assay: SRB antiproliferative assay, A549; type: cell-based, human; settings: means ± SD
Experimental: as §1, §2

[6] = DPPH free radical scavenging activity; settings: concentration scavenging 50% of DPPH radicals; means ± SD of three experiments
Experimental: To evaluate the antioxidant potential of compounds as radical scavengers versus the stable free radicals, 2,2-diphenylpicrylhydrazyl (DPPH) was applied. Antioxidant properties were expressed as the IC50 value—the concentration of compound required for scavenging 50% of DPPH radicals. […].
The DPPH free radical scavenging activities of the synthesized compounds were measured by DPPH, according to the method described in the paper. The free radical scavenging activity was measured as a decrease in the absorbance of DPPH, and calculated using the equation:DPPH scavenging effects (%) = […] [(A0 − A1)/A0]∙100](2) where: A0 was the absorbance of the control reaction and A1 absorbance in the presence of the sample of the analysed compounds [62]. The IC50 values were calculated as the concentration of compound required for scavenging 50% of DPPH [45]. Results were presented as the mean ± standard deviation (SD). The antioxidant activity data were compared using the one-way ANOVA test at the significance level 5%.

[7] = molecular target: T1, butyrylcholinesterase (BChE, E.C. 3.1.1.8, from equine serum) (Equus caballus, UniProt P81908); assay: biochemical; settings: means ± SEM of three independent experiments
T1 construct: butyrylcholinesterase (BChE, E.C. 3.1.1.8, from equine serum); purchased Sigma-Aldrich (Steinheim, Germany); host or cells: equine serum (natural source)
Experimental: (§3) The compounds were evaluated by an in vitro assay as the AChE and BChE inhibitors. The studies were carried out using the modified Ellman’s method. […] The inhibitory activities against AChE and BChE of the newly-synthesized compounds were determined exactly, according to a previous paper. […] The samples were analysed in triplicate. IC50 values were designated from a dose–response curve obtained by plotting the percentage of inhibition versus the log concentration, using GraphPad Prism 8 software. […] AChE and BChE activity data were compared using the Kruskal–Wallis test at the significance level of 1%.

[8] = molecular target: T2, Acetylcholinesterase (AChE, E.C. 3.1.1.7, from human erythrocytes) (Homo sapiens, UniProt P22303); assay: biochemical; settings: for Selectivity for AChE: IC50 (BChE)/IC50 (AChE); for IC50: means ± SEM of three independent experiments
T2 construct: Acetylcholinesterase (AChE, E.C. 3.1.1.7, from human erythrocytes); purchased Sigma-Aldrich (Steinheim, Germany); host or cells: human erythrocytes (natural source)
Experimental: as §3

[9] = tested on: normal mammary gland MCF10A cells; assay: LDH cytotoxicity assay, MCF10A normal cells; type: cell-based, human; settings: 72 h
Experimental: (§4) In view of the observed antiproliferative activity, the influence of the tested compounds on the normal human cells—normal mammary gland epiterial cells of the MCF10A line and the normal keratenocytes HaCaT line—was examined (Figure 5). The cells were treated with compounds 3, 8 and 10 in the concentration range from 0.1 µM to 25 µM for 72 h, after which the cell viability was tested by analysis of the level of released lactate dehydrogenase (LDH method).
(§5) Normal human epithelial cells from the mammary gland, MCF10A (a generous gift from our colleague Dr. Saraswati Sukumar (JHU), who obtained them recently from ATCC), and normal human keratinocytes HaCaT (also obtained from ATCC), were cultured in DMEM/F12 medium (Gibco), supplemented with 5% horse serum (Gibco), 5% FBS (Sigma-Aldrich Chemie GmbH, Taufkirchen, Germany ), penicillin streptomycin solution (1×) (Gibco) at 37 °C and 5% CO2. The cells were subcultured twice a week.
(§6) Human epiterial breast cells MCF10A and human keratinocytes HaCaT (1 × 10^4/mL) cells were placed on 96-well plates (Nunc, Roskilde, Denmark). The next day, the cells were exposed to increasing concentrations of compounds 3, 8 and 10 in 0.1, 0.25, 0.5, 1, 2.5, 5, 10 and 25 μM in fresh culture medium. Cytotoxicity was estimated based on the measurements of cytoplasmic lactate dehydrogenase (LDH) activity released from the damaged cells after the 72 h exposure to the compounds. The LDH assay was performed according to the manufacturer’s instructions (Cytotoxicity Detection KitPLUS LDH, Roche, Mannheim, Germany). Absorbance was measured using a microplate at two different wavelengths: “measurement wavelength” (492 nm) and “reference wavelength” (690 nm), using a microplate.

[10] = tested on: normal keratinocytes HaCaT cells; assay: LDH cytotoxicity assay, HaCaT normal cells; type: cell-based, human; settings: 72 h; for toxicity to keratinocytes (LDH release): HaCaT
Experimental: as §4, §5, §6

AChE = molecular target: T3, AChE (Homo sapiens, UniProt P22303); assay: Kinetic study of AChE inhibition (Lineweaver-Burk); type: biochemical; settings: for type of AChE inhibition: Lineweaver-Burk plot
T3 construct: Acetylcholinesterase (AChE, E.C. 3.1.1.7, from human erythrocytes); purchased Sigma-Aldrich (Steinheim, Germany); host or cells: human erythrocytes (natural source)
Experimental: Ellman’s method was used to prepare a kinetic characterization of AChE inhibition for compound 8. […]. The tested medium contained DTNB solution (0.4 mg/mL), AChE solution (2 U/mL), solution of the examined compound 8, and different concentrations of the ATCh iodide substrate solution (S). Absorbance was detected at 412 nm at room temperature after 10 min. The obtained data were calculated and presented on the Lineweaver–Burk plot. The determined the Michaelis–Menten constant (KM) and the maximum velocity of the enzyme (Vmax) values were used to define the type of enzyme inhibition.

T2 sequence (P22303 other isoform, or with tags, fused parts or gaps): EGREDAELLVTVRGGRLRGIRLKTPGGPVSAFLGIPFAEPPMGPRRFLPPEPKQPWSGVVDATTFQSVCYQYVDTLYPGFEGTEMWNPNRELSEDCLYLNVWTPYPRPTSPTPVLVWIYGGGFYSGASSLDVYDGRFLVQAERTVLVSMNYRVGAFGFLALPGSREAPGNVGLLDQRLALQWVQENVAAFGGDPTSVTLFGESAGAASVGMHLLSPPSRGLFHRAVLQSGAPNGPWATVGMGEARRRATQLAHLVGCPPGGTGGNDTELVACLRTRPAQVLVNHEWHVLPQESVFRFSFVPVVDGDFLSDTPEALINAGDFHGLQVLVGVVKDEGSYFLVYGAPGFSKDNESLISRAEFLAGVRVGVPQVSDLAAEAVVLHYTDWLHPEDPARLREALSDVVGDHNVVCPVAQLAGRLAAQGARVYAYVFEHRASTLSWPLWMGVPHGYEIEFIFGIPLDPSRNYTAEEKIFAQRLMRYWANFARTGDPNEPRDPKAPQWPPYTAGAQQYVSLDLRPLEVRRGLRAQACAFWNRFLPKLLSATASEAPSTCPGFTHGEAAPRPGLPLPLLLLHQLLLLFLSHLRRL
T3 sequence (P22303 other isoform, or with tags, fused parts or gaps): as above
T1 sequence (P81908 whole entry): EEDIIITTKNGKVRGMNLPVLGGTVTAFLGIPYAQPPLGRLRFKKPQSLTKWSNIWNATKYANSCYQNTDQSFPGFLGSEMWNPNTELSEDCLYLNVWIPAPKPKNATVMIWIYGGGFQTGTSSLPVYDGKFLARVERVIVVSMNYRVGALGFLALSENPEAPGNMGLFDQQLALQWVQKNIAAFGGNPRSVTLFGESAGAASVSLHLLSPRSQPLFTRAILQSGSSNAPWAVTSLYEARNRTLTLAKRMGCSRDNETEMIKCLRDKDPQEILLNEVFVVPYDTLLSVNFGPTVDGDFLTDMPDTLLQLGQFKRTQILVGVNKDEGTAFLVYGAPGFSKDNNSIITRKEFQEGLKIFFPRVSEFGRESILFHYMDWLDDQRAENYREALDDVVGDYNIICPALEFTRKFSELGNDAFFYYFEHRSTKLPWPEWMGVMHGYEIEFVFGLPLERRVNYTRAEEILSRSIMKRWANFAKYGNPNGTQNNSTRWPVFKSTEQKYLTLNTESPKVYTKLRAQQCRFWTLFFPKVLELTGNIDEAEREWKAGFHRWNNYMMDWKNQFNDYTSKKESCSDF

| SMILES | -S (slope of log k vs MeOH fraction) [1] | log kw [1] | IC50 ([2]; Homo sapiens, HCV29T) | IC50 ([3]; Homo sapiens, SW707, 72 h) | IC50 ([4]; Homo sapiens, T47D) | IC50 ([5]; Homo sapiens, A549, 72 h) | IC50 [6] | IC50 [7] | Selectivity for AChE [8] | IC50 [8] | also measured |
| --- | --- | --- | --- | --- | --- | --- | --- | --- | --- | --- | --- |
| Oc1ccc(-c2nc3ccccc3o2)c(O)c1 [Compound 1, 4-(1,3-Benzoxazol-2-yl)benzene-1,3-diol] | 4.358 | 3.273 | 33.9 ± 4.77 µM |  |  |  |  |  |  |  |  |
| Cc1c(O)ccc(-c2nc3ccc(O)cc3o2)c1O [Compound 2, 4-(6-Hydroxy-1,3-benzoxazol-2-yl)-2-methylbenzene-1,3-diol] | 4.64 | 3.301 | 8.34 ± 1.53 µM | 4.38 ± 1.57 µM | 5.28 ± 0.16 µM | 6.81 ± 2.23 µM |  |  |  |  |  |
| COC(=O)c1ccc2nc(-c3ccc(O)cc3O)oc2c1 [Compound 3, Methyl 2-(2,4-dihydroxyphenyl)-1,3-benzoxazole-6-carboxylate] | 5.325 | 2.92 | 6.43 ± 1.12 µM | 5.47 ± 2.16 µM | 3.37 ± 1.52 µM | 4.28 ± 0.55 µM | 0.286 ± 0.122 µM | 1.13 ± 0.016 µM | 10.017 | 0.113 ± 0.011 µM | toxicity to normal breast cells (LDH release) ([9]; 0.1–10 µM): not toxic; change in lactate dehydrogenase levels ([9]; 5 and 10 µM, vs control): statistically significant reduction; toxicity to keratinocytes (LDH release) ([10]; 0.1–10 µM): not toxic; change in lactate dehydrogenase levels ([10]; HaCaT, 2.5, 5 and 10 µM, vs control): statistically significant reduction |
| COC(=O)c1ccc2nc(-c3ccc(O)c(C)c3O)oc2c1 [Compound 4, Methyl 2-(2,4-dihydroxy-3-methylphenyl)-1,3-benzoxazole-6-carboxylate] | 5.002 | 3.411 | 4.64 ± 0.93 µM | 3.36 ± 0.84 µM | 3.2 ± 0.84 µM | 3.71 ± 0.4 µM |  |  |  |  |  |
| CCc1cc(-c2nc3ccc(C(=O)OC)cc3o2)c(O)cc1O [Compound 5, Methyl 2-(5-ethyl-2,4-dihydroxyphenyl)-1,3-benzoxazole-6-carboxylate] | 5.855 | 3.774 | 3.54 ± 1.05 µM | 2.13 ± 0.49 µM | 4.11 ± 1.27 µM | 3.08 ± 0.26 µM |  |  |  |  |  |
| COC(=O)c1ccc2nc(-c3cc(Cl)c(O)cc3O)oc2c1 [Compound 6, Methyl 2-(5-chloro-2,4-dihydroxyphenyl)-1,3-benzoxazole-6-carboxylate] | 5.477 | 4.223 | 7.54 ± 3.15 µM | 6.04 ± 0.89 µM | 6.61 ± 2.48 µM | 10.5 ± 5.61 µM | 0.861 ± 0.071 µM | 0.328 ± 0.027 µM | 0.394 | 0.831 ± 0.014 µM |  |
| COC(=O)c1ccc2nc(-c3ccc(O)c(O)c3O)oc2c1 [Compound 7, Methyl 2-(2,3,4-trihydroxyphenyl)-1,3-benzoxazole-6-carboxylate] | 4.811 | 2.800 | 23.3 ± 4.07 µM |  |  |  | 0.887 ± 0.064 µM | 0.667 ± 0.004 µM | 3.644 | 0.183 ± 0.031 µM |  |
| Oc1ccc(-c2nc3c(ccc4ccccc43)o2)c(O)c1 [Compound 8, 4-(Naphtho[1,2-d][1,3]oxazol-2-yl)benzene-1,3-diol] | 4.263 | 3.936 | 2.5 ± 1.88 µM | 3.35 ± 0.16 µM | 2.86 ± 0.18 µM | 4.17 ± 0.19 µM | 0.452 ± 0.031 µM | 0.981 ± 0.015 µM |  | 0.058 ± 0.01 µM | type of AChE inhibition (AChE): mixed-type inhibitor; type of AChE inhibition (AChE; listed as 4-(Naphtho[1,2-d][1,3]oxazol-2-yl)benzene-1,3-diol): mixed-type inhibition; Vmax (AChE; compound 8 concentration 25 nM): 0.031 A/min; Vmax (AChE; compound 8 concentration 50 nM): 0.023 A/min; Vmax (AChE; compound 8 concentration 75 nM): 0.021 A/min; influence on mammary cells viability (LDH) ([9]; 0.1–5 µM): no influence; toxicity to keratinocytes (LDH release) ([10]; whole tested range 0.1–25 µM): toxic |
| CCc1cc(-c2nc3c(ccc4ccccc43)o2)c(O)cc1O [Compound 9, 4-Ethyl-6-(naphtho[1,2-d][1,3]oxazol-2-yl)benzene-1,3-diol] | 5.395 | 4.901 | 3.72 ± 0.36 µM | 8.58 ± 3.4 µM | 7.28 ± 2.5 µM | 4.94 ± 0.69 µM | 0.214 ± 0.024 µM | 1.02 ± 0.032 µM | 1.971 | 0.516 ± 0.009 µM |  |
| N.N.[Cl][Pt][Cl] [cisplatin, reference compound] |  |  |  |  |  |  |  |  |  |  | IC50 ([3]; 72 h): 3.65 ± 0.76 µM; IC50 [4]: 4.01 ± 1.58 µM; IC50 ([5]; 72 h): 3.07 ± 0.45 µM; IC50 [2]: 2.4 ± 0.32 µM |
| O=c1c(O)c(-c2ccc(O)c(O)c2)oc2cc(O)cc(O)c12 [quercetin, reference compound] |  |  |  |  |  |  | 0.032 ± 0.001 µM |  |  |  |  |
